From ChEMBL document CHEMBL1255447, “Efflux pumps, OprD porin, AmpC beta-lactamase, and multiresistance in Pseudomonas aeruginosa isolates from cystic fibrosis patients” (2010)
≈ marks a conversion by molar mass, not a printed value.

Assays:
Pseudomonas aeruginosa [1] = test: Antimicrobial activity against Pseudomonas aeruginosa M1251 by Etest
Pseudomonas aeruginosa [2] = test: Antimicrobial activity against Pseudomonas aeruginosa R70 Etest; assay type: functional
Pseudomonas aeruginosa [3] = test: Antimicrobial activity against Pseudomonas aeruginosa R20 Etest; assay type: functional
Pseudomonas aeruginosa [4] = test: Antimicrobial activity against Pseudomonas aeruginosa AHP Etest; assay type: functional
Pseudomonas aeruginosa [5] = test: Antimicrobial activity against Pseudomonas aeruginosa Z799/61 by Etest; assay type: functional
Pseudomonas aeruginosa [6] = test: Antimicrobial activity against Pseudomonas aeruginosa 1405-con D2 by Etest; assay type: functional
Pseudomonas aeruginosa [7] = test: Antimicrobial activity against Pseudomonas aeruginosa isolate 1530c from fibrosis patient by Etest; assay type: functional
Pseudomonas aeruginosa [8] = test: Antimicrobial activity against Pseudomonas aeruginosa isolate 1693c from fibrosis patient by Etest; assay type: functional
Pseudomonas aeruginosa [9] = test: Antimicrobial activity against Pseudomonas aeruginosa isolate 17145c from fibrosis patient by Etest; assay type: functional
Pseudomonas aeruginosa [10] = test: Antimicrobial activity against Pseudomonas aeruginosa isolate 1529c from fibrosis patient by Etest; assay type: functional
Pseudomonas aeruginosa [11] = test: Antimicrobial activity against Pseudomonas aeruginosa isolate 14169c from fibrosis patient by Etest; assay type: functional
Pseudomonas aeruginosa [12] = test: Antimicrobial activity against Pseudomonas aeruginosa isolate 1247c from fibrosis patient by Etest; assay type: functional
Pseudomonas aeruginosa [13] = test: Antimicrobial activity against Pseudomonas aeruginosa isolate 1681c from fibrosis patient by Etest; assay type: functional
Pseudomonas aeruginosa [14] = test: Antimicrobial activity against Pseudomonas aeruginosa isolate 1352c from fibrosis patient by Etest; assay type: functional
Pseudomonas aeruginosa [15] = test: Antimicrobial activity against Pseudomonas aeruginosa isolate 1333c from fibrosis patient by Etest; assay type: functional
Pseudomonas aeruginosa [16] = test: Antimicrobial activity against Pseudomonas aeruginosa isolate 1248c from fibrosis patient by Etest; assay type: functional
Pseudomonas aeruginosa [17] = test: Antimicrobial activity against Pseudomonas aeruginosa isolate 15110c from fibrosis patient by Etest; assay type: functional
Pseudomonas aeruginosa [18] = test: Antimicrobial activity against Pseudomonas aeruginosa isolate 12142c from fibrosis patient by Etest; assay type: functional
Pseudomonas aeruginosa [19] = test: Antimicrobial activity against Pseudomonas aeruginosa isolate 1712c from fibrosis patient by Etest; assay type: functional
Pseudomonas aeruginosa [20] = test: Antimicrobial activity against Pseudomonas aeruginosa isolate 1495c from fibrosis patient by Etest; assay type: functional
Pseudomonas aeruginosa [21] = test: Antimicrobial activity against Pseudomonas aeruginosa isolate 1726 from fibrosis patient by Etest; assay type: functional
Pseudomonas aeruginosa [22] = test: Antimicrobial activity against Pseudomonas aeruginosa isolate 15107 from fibrosis patient by Etest; assay type: functional
Pseudomonas aeruginosa [23] = test: Antimicrobial activity against Pseudomonas aeruginosa isolate 16008 from fibrosis patient by Etest; assay type: functional
Pseudomonas aeruginosa [24] = test: Antimicrobial activity against Pseudomonas aeruginosa isolate 13167 from fibrosis patient by Etest; assay type: functional
Pseudomonas aeruginosa [25] = test: Antimicrobial activity against Pseudomonas aeruginosa isolate 1240 from fibrosis patient by Etest; assay type: functional
Pseudomonas aeruginosa [26] = test: Antimicrobial activity against Pseudomonas aeruginosa isolate 3149 from fibrosis patient by Etest; assay type: functional
Pseudomonas aeruginosa [27] = test: Antimicrobial activity against Pseudomonas aeruginosa isolate 12102 from fibrosis patient by Etest; assay type: functional
Pseudomonas aeruginosa [28] = test: Antimicrobial activity against Pseudomonas aeruginosa isolate 1253 from fibrosis patient by Etest; assay type: functional
Pseudomonas aeruginosa [29] = test: Antimicrobial activity against Pseudomonas aeruginosa isolate 1665 from fibrosis patient by Etest; assay type: functional
Pseudomonas aeruginosa [30] = test: Antimicrobial activity against Pseudomonas aeruginosa isolate 17112 from fibrosis patient by Etest; assay type: functional
Pseudomonas aeruginosa [31] = test: microbe, parasite or virus in culture; conditions: 2779-con
Description: Antimicrobial activity against Pseudomonas aeruginosa 2779-con by Etest

Pseudomonas aeruginosa [32] = test: microbe, parasite or virus in culture; conditions: isolate 13120
Description: Antimicrobial activity against Pseudomonas aeruginosa isolate 13120 from fibrosis patient by Etest

| Compound | MIC (Pseudomonas aeruginosa [2]) [µg/mL] | MIC (Pseudomonas aeruginosa [3]) [µg/mL] | MIC (Pseudomonas aeruginosa [4]) [µg/mL] | MIC (Pseudomonas aeruginosa [5]) [µg/mL] | MIC (Pseudomonas aeruginosa [6]) [µg/mL] | MIC (Pseudomonas aeruginosa [7]) [µg/mL] | MIC (Pseudomonas aeruginosa [8]) [µg/mL] | MIC (Pseudomonas aeruginosa [9]) [µg/mL] | MIC (Pseudomonas aeruginosa [10]) [µg/mL] | MIC (Pseudomonas aeruginosa [11]) [µg/mL] | MIC (Pseudomonas aeruginosa [12]) [µg/mL] | MIC (Pseudomonas aeruginosa [13]) [µg/mL] | MIC (Pseudomonas aeruginosa [14]) [µg/mL] | MIC (Pseudomonas aeruginosa [15]) [µg/mL] | MIC (Pseudomonas aeruginosa [16]) [µg/mL] | MIC (Pseudomonas aeruginosa [17]) [µg/mL] | MIC (Pseudomonas aeruginosa [18]) [µg/mL] | MIC (Pseudomonas aeruginosa [19]) [µg/mL] | MIC (Pseudomonas aeruginosa [20]) [µg/mL] | MIC (Pseudomonas aeruginosa [21]) [µg/mL] | other results |
| --- | --- | --- | --- | --- | --- | --- | --- | --- | --- | --- | --- | --- | --- | --- | --- | --- | --- | --- | --- | --- | --- |
| C[C@@H](O)[C@H]1C(=O)N2C(C(=O)O)=C(SCCNC=N)C[C@H]12 [IMIPENEM ANHYDROUS] | 16 (≈ 53.4 µM) | 2 (≈ 6.68 µM) | 0.12 (≈ 0.401 µM) | 0.5 (≈ 1.67 µM) | 16 (≈ 53.4 µM) | 8 (≈ 26.7 µM) | 8 (≈ 26.7 µM) | 32 (≈ 107 µM) | 16 (≈ 53.4 µM) | 16 (≈ 53.4 µM) | 16 (≈ 53.4 µM) | 32 (≈ 107 µM) | > 32 | 32 (≈ 107 µM) | 16 (≈ 53.4 µM) | > 32 | 32 (≈ 107 µM) | 32 (≈ 107 µM) | > 32 | 4 (≈ 13.4 µM) | MIC (Pseudomonas aeruginosa [1]): 4 µg/mL (≈ 13.4 µM); MIC (Pseudomonas aeruginosa [22]): 8 µg/mL (≈ 26.7 µM); MIC (Pseudomonas aeruginosa [23]): 64 µg/mL (≈ 214 µM); MIC (Pseudomonas aeruginosa [24]): 4 µg/mL (≈ 13.4 µM); MIC (Pseudomonas aeruginosa [25]): 16 µg/mL (≈ 53.4 µM); MIC (Pseudomonas aeruginosa [26]): 32 µg/mL (≈ 107 µM); MIC (Pseudomonas aeruginosa [27]): 32 µg/mL (≈ 107 µM); MIC (Pseudomonas aeruginosa [28]): > 32 µg/mL; MIC (Pseudomonas aeruginosa [29]): 64 µg/mL (≈ 214 µM); MIC (Pseudomonas aeruginosa [30]): 128 µg/mL (≈ 428 µM); MIC (Pseudomonas aeruginosa [31]): 2 µg/mL (≈ 6.68 µM); MIC (Pseudomonas aeruginosa [32]): 16 µg/mL (≈ 53.4 µM) |
| C[C@@H](O)[C@H]1C(=O)N2C(C(=O)O)=C(S[C@@H]3CN[C@H](C(=O)N(C)C)C3)[C@H](C)[C@H]12 [MEROPENEM] | > 32 | 0.5 (≈ 1.3 µM) | 0.25 (≈ 0.652 µM) | ≤ 0.06 | 8 (≈ 20.9 µM) | 0.5 (≈ 1.3 µM) | 2 (≈ 5.22 µM) | 4 (≈ 10.4 µM) | 4 (≈ 10.4 µM) | 4 (≈ 10.4 µM) | 4 (≈ 10.4 µM) | 8 (≈ 20.9 µM) | 16 (≈ 41.7 µM) | 16 (≈ 41.7 µM) | 16 (≈ 41.7 µM) | 16 (≈ 41.7 µM) | 32 (≈ 83.4 µM) | 32 (≈ 83.4 µM) | > 32 | 0.12 (≈ 0.313 µM) | MIC (Pseudomonas aeruginosa [1]): 8 µg/mL (≈ 20.9 µM); MIC (Pseudomonas aeruginosa [22]): 2 µg/mL (≈ 5.22 µM); MIC (Pseudomonas aeruginosa [23]): 4 µg/mL (≈ 10.4 µM); MIC (Pseudomonas aeruginosa [24]): 4 µg/mL (≈ 10.4 µM); MIC (Pseudomonas aeruginosa [25]): 8 µg/mL (≈ 20.9 µM); MIC (Pseudomonas aeruginosa [26]): 8 µg/mL (≈ 20.9 µM); MIC (Pseudomonas aeruginosa [27]): 16 µg/mL (≈ 41.7 µM); MIC (Pseudomonas aeruginosa [28]): 32 µg/mL (≈ 83.4 µM); MIC (Pseudomonas aeruginosa [29]): > 32 µg/mL; MIC (Pseudomonas aeruginosa [30]): > 32 µg/mL; MIC (Pseudomonas aeruginosa [31]): 1 µg/mL (≈ 2.61 µM); MIC (Pseudomonas aeruginosa [32]): 32 µg/mL (≈ 83.4 µM) |
| CO/N=C(\C(=O)N[C@@H]1C(=O)N2C(C(=O)O)=C(COC(C)=O)CS[C@H]12)c1csc(N)n1 [CEFOTAXIME] | 256 (≈ 562 µM) | 4 (≈ 8.78 µM) | 4 (≈ 8.78 µM) | 0.5 (≈ 1.1 µM) | > 256 | 32 (≈ 70.3 µM) | 128 (≈ 281 µM) | 128 (≈ 281 µM) | 32 (≈ 70.3 µM) | 128 (≈ 281 µM) | 128 (≈ 281 µM) | > 256 | > 256 | > 256 | > 256 | > 256 | > 256 | > 256 | > 256 | 16 (≈ 35.1 µM) | MIC (Pseudomonas aeruginosa [1]): 128 µg/mL (≈ 281 µM); MIC (Pseudomonas aeruginosa [22]): 256 µg/mL (≈ 562 µM); MIC (Pseudomonas aeruginosa [23]): 64 µg/mL (≈ 141 µM); MIC (Pseudomonas aeruginosa [24]): > 256 µg/mL; MIC (Pseudomonas aeruginosa [25]): 256 µg/mL (≈ 562 µM); MIC (Pseudomonas aeruginosa [26]): 64 µg/mL (≈ 141 µM); MIC (Pseudomonas aeruginosa [27]): 64 µg/mL (≈ 141 µM); MIC (Pseudomonas aeruginosa [28]): 128 µg/mL (≈ 281 µM); MIC (Pseudomonas aeruginosa [29]): > 256 µg/mL; MIC (Pseudomonas aeruginosa [30]): > 256 µg/mL; MIC (Pseudomonas aeruginosa [31]): > 256 µg/mL; MIC (Pseudomonas aeruginosa [32]): 128 µg/mL (≈ 281 µM) |
| NC[C@H]1O[C@H](O[C@H]2[C@H](O)[C@@H](O[C@H]3O[C@H](CO)[C@@H](O)[C@H](N)[C@H]3O)[C@H](N)C[C@@H]2N)[C@H](N)C[C@@H]1O [TOBRAMYCIN] | 0.5 (≈ 1.07 µM) | 0.5 (≈ 1.07 µM) | ≤ 0.12 | 0.25 (≈ 0.535 µM) | 2 (≈ 4.28 µM) | 4 (≈ 8.56 µM) | 2 (≈ 4.28 µM) | 16 (≈ 34.2 µM) | 16 (≈ 34.2 µM) | 4 (≈ 8.56 µM) | 8 (≈ 17.1 µM) | 16 (≈ 34.2 µM) | 16 (≈ 34.2 µM) | 8 (≈ 17.1 µM) | 32 (≈ 68.4 µM) | > 32 | > 32 | 16 (≈ 34.2 µM) | 8 (≈ 17.1 µM) | 0.5 (≈ 1.07 µM) | MIC (Pseudomonas aeruginosa [1]): 0.25 µg/mL (≈ 0.535 µM); MIC (Pseudomonas aeruginosa [22]): 2 µg/mL (≈ 4.28 µM); MIC (Pseudomonas aeruginosa [23]): 4 µg/mL (≈ 8.56 µM); MIC (Pseudomonas aeruginosa [24]): 4 µg/mL (≈ 8.56 µM); MIC (Pseudomonas aeruginosa [25]): 0.5 µg/mL (≈ 1.07 µM); MIC (Pseudomonas aeruginosa [26]): > 32 µg/mL; MIC (Pseudomonas aeruginosa [27]): 1 µg/mL (≈ 2.14 µM); MIC (Pseudomonas aeruginosa [28]): 4 µg/mL (≈ 8.56 µM); MIC (Pseudomonas aeruginosa [29]): 32 µg/mL (≈ 68.4 µM); MIC (Pseudomonas aeruginosa [30]): 0.5 µg/mL (≈ 1.07 µM); MIC (Pseudomonas aeruginosa [31]): 1 µg/mL (≈ 2.14 µM); MIC (Pseudomonas aeruginosa [32]): 0.25 µg/mL (≈ 0.535 µM) |
| GENTAMICIN | 1 | < 0.25 | < 0.12 | < 0.12 | 2 | 32 | 16 | 32 | > 32 | 32 | > 32 | 32 | > 32 | > 32 | > 32 | > 32 | > 32 | > 32 | > 64 | 2 | MIC (Pseudomonas aeruginosa [22]): > 32 µg/mL; MIC (Pseudomonas aeruginosa [23]): 16 µg/mL; MIC (Pseudomonas aeruginosa [24]): 32 µg/mL; MIC (Pseudomonas aeruginosa [25]): 2 µg/mL; MIC (Pseudomonas aeruginosa [26]): > 32 µg/mL; MIC (Pseudomonas aeruginosa [27]): 4 µg/mL; MIC (Pseudomonas aeruginosa [28]): 16 µg/mL; MIC (Pseudomonas aeruginosa [29]): 16 µg/mL; MIC (Pseudomonas aeruginosa [30]): 1 µg/mL |
